# Assay results taken from patent US5700635A, “HIV-1 gag cytotoxic T-lymphocyte epitope and method of use” (United Biomedical, Inc., priority 1989, dated 1997).
# Key:
# [1] = tested on: cytotoxic T lymphocytes specific for gag and HLA B8
smiles,measurement,setting,value
"CC[C@H](C)[C@H](NC(=O)[C@H](CCC(=O)O)NC(=O)CNC(=O)[C@@H](NC(=O)[C@@H]1CCCN1C(=O)[C@@H](NC(=O)[C@@H]1CCCN1C(=O)[C@@H]1CCCN1C(=O)[C@@H](N)CC(N)=O)[C@@H](C)CC)C(C)C)C(=O)N[C@@H](Cc1ccc(O)cc1)C(=O)N[C@@H](CCCCN)C(=O)N[C@@H](CCCNC(=N)N)C(=O)N[C@@H](Cc1c[nH]c2ccccc12)C(=O)N[C@H](C(=O)N[C@H](C(=O)N[C@@H](CS)C(=O)O)[C@@H](C)CC)[C@@H](C)CC [p24-13, NH2 -asparagine-proline-proline-isoleucine-proline-valine-glycine-glutamate-isoleucine-tyrosine-lysine-arginine-tryptophan-isoleucine-iso leucine-cysteine-COOH]",recognition of peptide by cytotoxic T lymphocytes (lysis of target cells),[1],recognised by cytotoxic T lymphocytes specific for gag and HLA B8
same,specific interaction with HLA class I molecule,[1],interacts specifically with HLA B8
same,stimulation of cytotoxic T lymphocytes to grow in vitro,cytotoxic T lymphocytes,have been used to stimulate cytotoxic T lymphocytes to grow in vitro
